# Values of other authors as cited in patent publication US20080317862A1, “Organic Compounds Comprising a Glycopyrrolium Salt” (priority 2005, published 2008).
# Details: aerosol formulation for treating asthma, single administration of a metered dose
smiles,measurement,value
"C[N+]1(C)CCC(OC(=O)C(O)(c2ccccc2)C2CCCC2)C1.[Br-] (racemic) [glycopyrrolate, 3-[(cyclopentyl-hydroxyphenylacetyl)oxy]-1,1-dimethylpyrrolidinium bromide]",duration of bronchodilation,up to 12 hours
